Where two headings read alike, the source gives them in different places.
Columns and labels:
[1] = molecular target: biotinylated Avi-POLθ[2-894] (Homo sapiens (Human), UniProt O75417); assay: POLθ ATPase assay (ADP-Glo); conditions: n=2, read-out: Biochemical ATPase ADPGlo IC50
DLD1 BRCA2 (−/−) cells = assay: 7-day cell viability assay (CellTiter-Glo), DLD1 BRCA2 (−/−); format: cell-based, human; conditions: n=2, read-out: Viability IC50 (uM) DLD1 BRCA2 null
Method in brief: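 7-day growth assay in DLD1 cells with or without BRCA2; seeding densities chosen to keep log-linear growth. Compound: 10 uM top, 3-fold, 9 points. Endpoint: CTG ATP luminescence at RT.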

DLD1 WT cells = assay: 7-day cell viability assay (CellTiter-Glo), DLD1 parental (WT); format: cell-based, human; conditions: n=2
[2] = Homo sapiens, DLD-1, 168 h, 7-day viability
[3] = Homo sapiens, DLD-1, 168 h, 7-day CellTiter-Glo

Sequence of biotinylated Avi-POLθ[2-894] (O75417 2-894): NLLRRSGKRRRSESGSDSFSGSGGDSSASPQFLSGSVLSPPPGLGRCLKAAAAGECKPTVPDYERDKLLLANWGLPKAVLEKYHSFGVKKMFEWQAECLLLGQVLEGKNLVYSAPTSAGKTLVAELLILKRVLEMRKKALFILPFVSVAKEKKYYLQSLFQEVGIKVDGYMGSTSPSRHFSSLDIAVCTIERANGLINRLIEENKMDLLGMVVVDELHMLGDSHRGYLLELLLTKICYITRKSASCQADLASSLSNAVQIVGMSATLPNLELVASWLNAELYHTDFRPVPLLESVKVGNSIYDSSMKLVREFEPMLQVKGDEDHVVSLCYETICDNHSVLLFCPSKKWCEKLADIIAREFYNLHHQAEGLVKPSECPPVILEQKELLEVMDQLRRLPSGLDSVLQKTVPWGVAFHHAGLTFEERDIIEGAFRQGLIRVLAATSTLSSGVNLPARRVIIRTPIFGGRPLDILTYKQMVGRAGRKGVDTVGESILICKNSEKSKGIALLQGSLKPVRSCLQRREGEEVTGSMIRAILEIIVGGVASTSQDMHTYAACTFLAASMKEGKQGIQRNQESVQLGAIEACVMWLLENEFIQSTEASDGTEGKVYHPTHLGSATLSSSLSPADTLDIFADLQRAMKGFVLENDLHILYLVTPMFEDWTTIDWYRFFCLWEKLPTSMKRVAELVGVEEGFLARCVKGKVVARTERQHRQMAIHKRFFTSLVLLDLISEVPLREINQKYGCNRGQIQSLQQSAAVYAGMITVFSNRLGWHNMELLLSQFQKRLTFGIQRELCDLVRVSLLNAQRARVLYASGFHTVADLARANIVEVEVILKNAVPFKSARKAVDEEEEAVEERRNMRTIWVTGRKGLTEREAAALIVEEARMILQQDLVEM

| Compound | IC50 [1] | IC50 (DLD1 BRCA2 (−/−) cells; [2]) | IC50 (DLD1 WT cells; [2]) | IC50 ([1]; POLθ ATPase, ADP-Glo) | IC50 (DLD1 BRCA2 (−/−) cells; [3]) | IC50 (DLD1 WT cells; [3]) | IC50 (DLD1 BRCA2 (−/−) cells; 7-day CellTiter-Glo) | IC50 (DLD1 WT cells; 7-day CellTiter-Glo) |
| --- | --- | --- | --- | --- | --- | --- | --- | --- |
| COc1cnc(Cl)cc1-c1cc(C)ncc1C(=O)Nc1nc2c(s1)CN(C(=O)c1cc(C)nn1C)C2 [Example 49, 2′-chloro-N-(5-(1,3-dimethyl-1H-pyrazole-5-carbonyl)-5,6-dihydro-4H-pyrrolo[3,4-d]thiazol-2-yl)-5′-methoxy-6-methyl-[4,4′-bipyridine]-3-carboxamide] | 1 to 15 nM | 0.001 to 0.1 µM | ≥ 10 µM | – | – | – | – | – |
| COc1ccc(C#N)cc1-c1cc(C)ncc1C(=O)Nc1nc2c(s1)CN(C(=O)C1CC(OC(F)F)C1)C2 (stereo not drawn) [Example 179] | 1 to 15 nM | 0.001 to 0.1 µM | ≥ 10 µM | – | – | – | – | – |
| COc1cn2cncc2cc1-c1cc(C)ncc1C(=O)Nc1nc2c(s1)CN(C(=O)c1ccc(C(F)F)cn1)C2 [Example 117] | 1 to 15 nM | 0.001 to 0.1 µM | ≥ 10 µM | – | – | – | – | – |
| COc1cnc(Cl)cc1-c1cc(C)ncc1C(=O)Nc1nc2c(s1)CN(C(=O)C1CC(CC(F)F)C1)C2 (stereo not drawn) [Example 177] | 1 to 15 nM | 0.001 to 0.1 µM | ≥ 10 µM | – | – | – | – | – |
| COc1cnc(Cl)cc1-c1cc(C)ncc1C(=O)Nc1nc2c(s1)CN(C(=O)c1ccc(OC)c3ccnn13)C2 [Example 402] | 1 to 15 nM | 0.001 to 0.1 µM | ≥ 10 µM | – | – | – | – | – |
| COc1cnc(Cl)cc1-c1cc(C)ncc1C(=O)Nc1nc2c(s1)CN(C(=O)c1ncc(Br)cc1OC)C2 | – | – | – | 1 to 15 nM | 0.1 to 0.25 µM | ≥ 10 µM | – | – |
| COc1cnc(Cl)cc1-c1cc(C)ncc1C(=O)Nc1nc2c(s1)CN(C(=O)c1nn(C)c3c1CCC3)C2 [Example 47, 2′-chloro-5′-methoxy-6-methyl-N-(5-(1-methyl-1,4,5,6-tetrahydrocyclopenta[c]pyrazole-3-carbonyl)-5,6-dihydro-4H-pyrrolo[3,4-d]thiazol-2-yl)-[4,4′-bipyridine]-3-carboxamide] | 1 to 15 nM | 0.001 to 0.1 µM | 5 to 10 µM | – | – | – | – | – |
| COc1cnc(Cl)cc1-c1cc(C)ncc1C(=O)Nc1nc2c(s1)CN(C(=O)c1cccc3ccnn13)C2 | 1 to 15 nM | 0.001 to 0.1 µM | ≥ 10 µM | – | – | – | – | – |
| COc1ccc(C(=O)N2Cc3nc(NC(=O)c4cnc(C)cc4-c4cc(Cl)ncc4OC)sc3C2)nc1 [Example 121] | 1 to 15 nM | 0.001 to 0.1 µM | ≥ 10 µM | – | – | – | – | – |
| N-(5-(2-Chloro-5-(difluoromethyl)benzoyl)-5,6-dihydro-4H-pyrrolo[3,4-d]thiazol-2-yl)-4-(5-cyano-2-methoxyphenyl)-6-methylnicotinamide [Example 489] | – | – | – | 1 to 15 nM | – | – | 0.001 to 0.1 µM | 5 to 10 µM |
| COc1cnc(Cl)cc1-c1cc(C)ncc1C(=O)Nc1nc2c(s1)CN(C(=O)c1cccnc1C(F)F)C2 [Example 39, 2′-chloro-N-(5-(2-(difluoromethyl)nicotinoyl)-5,6-dihydro-4H-pyrrolo[3,4-d]thiazol-2-yl)-5′-methoxy-6-methyl-[4,4′-bipyridine]-3-carboxamide] | 1 to 15 nM | 0.001 to 0.1 µM | ≥ 10 µM | – | – | – | – | – |
| COc1cnc(Cl)cc1-c1cc(C)ncc1C(=O)Nc1nc2c(s1)CN(C(=O)c1ccc(O)cn1)C2 [Example 174] | 1 to 15 nM | 0.1 to 0.25 µM | ≥ 10 µM | – | – | – | – | – |
| COc1cnc(Cl)cc1-c1cc(C)ncc1C(=O)Nc1nc2c(s1)CN(C(=O)c1ncc(C(F)F)cc1Cl)C2 | 1 to 15 nM | 0.1 to 0.25 µM | ≥ 10 µM | – | – | – | – | – |
| COc1cnc(Cl)cc1-c1cc(C)ncc1C(=O)Nc1nc2c(s1)CN(C(=O)c1ccc(OC(F)F)cn1)C2 [Example 93, 2′-chloro-N-(5-(5-(difluoromethoxy)picolinoyl)-5,6-dihydro-4H-pyrrolo[3,4-d]thiazol-2-yl)-5′-methoxy-6-methyl-[4,4′-bipyridine]-3-carboxamide] | 1 to 15 nM | 0.001 to 0.1 µM | 0.001 to 0.5 µM | – | – | – | – | – |
| COc1cnc(Cl)cc1-c1cc(C)ncc1C(=O)Nc1nc2c(s1)CN(C(=O)c1ccc(Cl)cn1)C2 [Example 11, 2′-chloro-N-(5-(5-chloropicolinoyl)-5,6-dihydro-4H-pyrrolo[3,4-d]thiazol-2-yl)-5′-methoxy-6-methyl-[4,4′-bipyridine]-3-carboxamide] | 1 to 15 nM | 0.001 to 0.1 µM | 2 to 5 µM | – | – | – | – | – |
| COc1cnc(Cl)cc1-c1cc(C)ncc1C(=O)Nc1nc2c(s1)CN(C(=O)c1ccc(C(F)F)cc1Cl)C2 | – | – | – | 1 to 15 nM | 0.001 to 0.1 µM | ≥ 10 µM | – | – |
| COc1nc(OC)c(-c2cc(C)ncc2C(=O)Nc2nc3c(s2)CN(C(=O)c2ccc(C(F)(F)F)nc2OC)C3)cc1Cl [Example 1036, 5-chloro-2,6-dimethoxy-N-(5-(2-methoxy-6-(trifluoromethyl)nicotinoyl)-5,6-dihydro-4H-pyrrolo[3,4-d]thiazol-2-yl)-6′-methyl-[3,4′-bipyridine]-3′-carboxamide] | – | – | – | 1 to 15 nM | 0.001 to 0.1 µM | ≥ 10 µM | – | – |
| COc1cnc(Cl)cc1-c1cc(C)ncc1C(=O)Nc1nc2c(s1)CN(C(=O)c1cc(C(F)(F)F)nn1C)C2 [Example 44, 2′-chloro-5′-methoxy-6-methyl-N-(5-(1-methyl-3-(trifluoromethyl)-1H-pyrazole-5-carbonyl)-5,6-dihydro-4H-pyrrolo[3,4-d]thiazol-2-yl)-[4,4′-bipyridine]-3-carboxamide] | 1 to 15 nM | 0.001 to 0.1 µM | ≥ 10 µM | – | – | – | – | – |

Source: patent publication US20250230171A1 (MOMA Therapeutics, Inc., priority 2023, published 2025)
